Experiments:
ADORA2A [1] = biological target: T1, ADORA2A (Homo sapiens, UniProt P29274); assay: SAFETYscan Calcium Flux ADORA2A Agonist; type: cell-based
Excerpt: (§1) Supplement jm3c00155_si_002.xlsx, sheet "SAFETYScan" | column: RC50 (uM); Max Response

CCKAR = biological target: T2, CCKAR (Homo sapiens, UniProt P32238); assay: SAFETYscan Calcium Flux CCKAR Agonist; type: cell-based
T2 sequence (P32238 1-428): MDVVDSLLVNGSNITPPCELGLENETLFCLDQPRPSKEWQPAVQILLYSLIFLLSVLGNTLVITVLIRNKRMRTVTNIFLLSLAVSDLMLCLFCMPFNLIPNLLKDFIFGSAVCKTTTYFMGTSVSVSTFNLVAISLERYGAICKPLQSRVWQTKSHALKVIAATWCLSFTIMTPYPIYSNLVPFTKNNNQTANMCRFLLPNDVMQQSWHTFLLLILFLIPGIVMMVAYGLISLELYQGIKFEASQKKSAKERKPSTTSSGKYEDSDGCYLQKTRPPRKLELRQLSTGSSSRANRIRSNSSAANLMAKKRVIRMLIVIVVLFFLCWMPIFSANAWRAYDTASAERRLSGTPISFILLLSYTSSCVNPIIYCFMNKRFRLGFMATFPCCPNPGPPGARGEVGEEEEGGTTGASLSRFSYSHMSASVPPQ
Excerpt: as §1

HTR2A = HTR2A (Homo sapiens, UniProt P28223); assay: SAFETYscan Calcium Flux HTR2A Agonist; type: cell-based
Excerpt: as §1

ADORA2A [2] = biological target: T1, ADORA2A; assay: SAFETYscan Calcium Flux ADORA2A Antagonist; type: cell-based
Excerpt: as §1

ADRA1A = biological target: T3, ADRA1A (Homo sapiens, UniProt P35348); assay: SAFETYscan Calcium Flux ADRA1A Antagonist; type: cell-based
T3 sequence (P35348 1-466): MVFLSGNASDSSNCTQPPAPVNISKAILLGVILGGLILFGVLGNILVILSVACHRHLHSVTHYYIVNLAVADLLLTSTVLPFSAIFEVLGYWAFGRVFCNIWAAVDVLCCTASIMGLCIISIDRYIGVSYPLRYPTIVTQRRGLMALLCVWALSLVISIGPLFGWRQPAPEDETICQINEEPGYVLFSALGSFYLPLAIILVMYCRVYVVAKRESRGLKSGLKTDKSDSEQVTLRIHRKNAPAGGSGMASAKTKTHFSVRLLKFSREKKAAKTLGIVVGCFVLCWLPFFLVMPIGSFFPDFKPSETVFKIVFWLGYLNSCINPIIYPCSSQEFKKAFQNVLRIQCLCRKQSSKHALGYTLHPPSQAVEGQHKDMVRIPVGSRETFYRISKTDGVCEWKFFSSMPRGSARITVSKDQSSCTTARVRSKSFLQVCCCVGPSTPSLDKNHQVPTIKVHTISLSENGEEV
Excerpt: as §1

HRH1 = HRH1 (Homo sapiens, UniProt P35367); assay: SAFETYscan Calcium Flux HRH1 Antagonist; type: cell-based
Excerpt: as §1

DRD2S [3] = biological target: T4, DRD2S (Homo sapiens, UniProt P14416); assay: SAFETYscan cAMP DRD2S Agonist; type: cell-based
Excerpt: (§2) Supplement jm3c00155_si_002.xlsx, sheet "SAFETYScan" | column: RC50 (uM); Hill; Max Response

HRH2 = HRH2 (Homo sapiens, UniProt P25021); assay: SAFETYscan cAMP HRH2 Agonist; type: cell-based
Excerpt: as §1

HTR1A = biological target: T5, HTR1A (Homo sapiens, UniProt P08908); assay: SAFETYscan cAMP HTR1A Agonist; type: cell-based
T5 sequence (P08908 1-422): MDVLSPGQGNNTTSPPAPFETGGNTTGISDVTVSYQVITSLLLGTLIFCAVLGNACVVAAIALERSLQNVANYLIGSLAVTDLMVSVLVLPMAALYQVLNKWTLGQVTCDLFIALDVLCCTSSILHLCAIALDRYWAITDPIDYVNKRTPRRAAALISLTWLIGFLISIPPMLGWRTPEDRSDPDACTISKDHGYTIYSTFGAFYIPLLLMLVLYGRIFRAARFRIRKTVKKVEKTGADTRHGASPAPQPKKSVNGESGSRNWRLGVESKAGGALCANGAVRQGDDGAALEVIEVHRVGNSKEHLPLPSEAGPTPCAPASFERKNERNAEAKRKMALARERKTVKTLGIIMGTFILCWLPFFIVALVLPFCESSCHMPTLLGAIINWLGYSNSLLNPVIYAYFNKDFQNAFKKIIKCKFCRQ
Excerpt: as §1

ADRB1 = ADRB1 (Homo sapiens, UniProt P08588); assay: SAFETYscan cAMP ADRB1 Antagonist; type: cell-based
Excerpt: as §2

ADRB2 = ADRB2 (Homo sapiens, UniProt P07550); assay: SAFETYscan cAMP ADRB2 Antagonist; type: cell-based
Excerpt: as §2

DRD2S [4] = biological target: T4, DRD2S; assay: SAFETYscan cAMP DRD2S Antagonist; type: cell-based
Excerpt: as §1

KvLQT1/minK = KvLQT1/minK (Homo sapiens, UniProt P51787); assay: SAFETYscan Ion Channel KvLQT1/minK Blocker; type: cell-based
Excerpt: as §1

nAChR(a4/b2) = nAChR(a4/b2) (Homo sapiens, UniProt P17787+P43681); assay: SAFETYscan Ion Channel nAChR(a4/b2) Opener; type: cell-based
Excerpt: as §1

NMDAR (1A/2B) = NMDAR (1A/2B) (Homo sapiens, UniProt Q05586+Q13224); assay: SAFETYscan Ion Channel NMDAR (1A/2B) Opener; type: cell-based
Excerpt: as §1

INSR = INSR (Homo sapiens, UniProt P06213); assay: SAFETYscan Kinases Binding INSR Inhibitor
Excerpt: as §1

LCK = LCK (Homo sapiens, UniProt P06239); assay: SAFETYscan Kinases Binding LCK Inhibitor
Excerpt: as §1

AChE = AChE (Homo sapiens, UniProt P22303); assay: SAFETYscan Enzymatic AChE Inhibitor; type: biochemical
Excerpt: as §1

COX2 = COX2 (Homo sapiens, UniProt P35354); assay: SAFETYscan Enzymatic COX2 Inhibitor; type: biochemical
Excerpt: as §1

SERT = SERT (Homo sapiens, UniProt P31645); assay: SAFETYscan Transporter SERT Blocker; type: cell-based
Excerpt: as §1

ADRB1, sequence (P08588 whole entry): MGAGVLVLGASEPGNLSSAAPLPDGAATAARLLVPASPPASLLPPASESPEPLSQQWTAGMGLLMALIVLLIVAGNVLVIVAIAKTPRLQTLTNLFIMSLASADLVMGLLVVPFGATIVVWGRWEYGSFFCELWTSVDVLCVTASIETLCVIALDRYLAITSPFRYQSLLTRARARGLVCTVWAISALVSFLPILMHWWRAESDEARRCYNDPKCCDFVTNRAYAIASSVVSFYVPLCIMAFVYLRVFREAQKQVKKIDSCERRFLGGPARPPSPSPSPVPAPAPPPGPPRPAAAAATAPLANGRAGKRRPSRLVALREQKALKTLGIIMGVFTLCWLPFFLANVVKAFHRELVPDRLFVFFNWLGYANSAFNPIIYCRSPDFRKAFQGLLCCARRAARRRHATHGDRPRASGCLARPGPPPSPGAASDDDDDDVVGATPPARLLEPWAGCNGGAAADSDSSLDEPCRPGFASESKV
T4 sequence (P14416 1-414 isoform P14416-2): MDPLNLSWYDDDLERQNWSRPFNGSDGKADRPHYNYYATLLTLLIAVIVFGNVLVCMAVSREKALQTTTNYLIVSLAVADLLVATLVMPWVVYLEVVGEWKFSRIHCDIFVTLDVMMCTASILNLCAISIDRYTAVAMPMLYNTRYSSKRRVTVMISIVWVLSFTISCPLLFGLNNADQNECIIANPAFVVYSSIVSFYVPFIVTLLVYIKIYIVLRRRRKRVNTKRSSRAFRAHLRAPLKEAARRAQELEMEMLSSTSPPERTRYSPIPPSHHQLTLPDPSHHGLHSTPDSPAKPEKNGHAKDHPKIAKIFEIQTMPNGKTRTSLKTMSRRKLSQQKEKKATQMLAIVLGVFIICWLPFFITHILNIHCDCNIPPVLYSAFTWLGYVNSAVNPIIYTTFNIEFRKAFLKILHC
ADRB2, sequence (P07550 whole entry): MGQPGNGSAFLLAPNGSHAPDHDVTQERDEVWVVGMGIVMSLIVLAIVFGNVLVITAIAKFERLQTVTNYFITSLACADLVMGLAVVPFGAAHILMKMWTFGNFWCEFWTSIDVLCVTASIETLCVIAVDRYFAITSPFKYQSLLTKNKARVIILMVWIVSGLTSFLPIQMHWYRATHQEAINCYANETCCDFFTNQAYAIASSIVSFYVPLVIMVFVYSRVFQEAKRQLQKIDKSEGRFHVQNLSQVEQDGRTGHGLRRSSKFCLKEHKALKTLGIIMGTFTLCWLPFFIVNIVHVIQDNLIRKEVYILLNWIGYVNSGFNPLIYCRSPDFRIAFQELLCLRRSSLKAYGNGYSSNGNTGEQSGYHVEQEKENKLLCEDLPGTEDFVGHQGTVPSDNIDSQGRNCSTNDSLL
T1 sequence (P29274 whole entry): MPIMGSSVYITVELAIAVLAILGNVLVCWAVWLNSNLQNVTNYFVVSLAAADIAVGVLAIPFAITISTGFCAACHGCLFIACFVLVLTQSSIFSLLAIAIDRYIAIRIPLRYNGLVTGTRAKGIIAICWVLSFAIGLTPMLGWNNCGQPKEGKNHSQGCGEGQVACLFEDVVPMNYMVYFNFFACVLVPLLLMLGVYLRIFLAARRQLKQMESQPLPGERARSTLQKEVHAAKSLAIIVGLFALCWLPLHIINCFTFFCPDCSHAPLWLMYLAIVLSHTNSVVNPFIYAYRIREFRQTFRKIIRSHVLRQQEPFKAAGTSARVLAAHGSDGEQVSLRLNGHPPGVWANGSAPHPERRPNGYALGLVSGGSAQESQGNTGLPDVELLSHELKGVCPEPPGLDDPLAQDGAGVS
HRH2, sequence (P25021 whole entry): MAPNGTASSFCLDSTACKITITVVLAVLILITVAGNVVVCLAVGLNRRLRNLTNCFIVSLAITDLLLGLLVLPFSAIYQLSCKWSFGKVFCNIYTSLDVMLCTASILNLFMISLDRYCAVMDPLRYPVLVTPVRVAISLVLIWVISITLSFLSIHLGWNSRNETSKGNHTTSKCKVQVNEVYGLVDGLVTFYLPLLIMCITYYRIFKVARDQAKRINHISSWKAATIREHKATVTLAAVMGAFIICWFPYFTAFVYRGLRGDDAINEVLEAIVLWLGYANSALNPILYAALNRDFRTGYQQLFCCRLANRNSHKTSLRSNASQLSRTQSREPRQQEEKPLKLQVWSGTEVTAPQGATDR
AChE, sequence (P22303 32-614): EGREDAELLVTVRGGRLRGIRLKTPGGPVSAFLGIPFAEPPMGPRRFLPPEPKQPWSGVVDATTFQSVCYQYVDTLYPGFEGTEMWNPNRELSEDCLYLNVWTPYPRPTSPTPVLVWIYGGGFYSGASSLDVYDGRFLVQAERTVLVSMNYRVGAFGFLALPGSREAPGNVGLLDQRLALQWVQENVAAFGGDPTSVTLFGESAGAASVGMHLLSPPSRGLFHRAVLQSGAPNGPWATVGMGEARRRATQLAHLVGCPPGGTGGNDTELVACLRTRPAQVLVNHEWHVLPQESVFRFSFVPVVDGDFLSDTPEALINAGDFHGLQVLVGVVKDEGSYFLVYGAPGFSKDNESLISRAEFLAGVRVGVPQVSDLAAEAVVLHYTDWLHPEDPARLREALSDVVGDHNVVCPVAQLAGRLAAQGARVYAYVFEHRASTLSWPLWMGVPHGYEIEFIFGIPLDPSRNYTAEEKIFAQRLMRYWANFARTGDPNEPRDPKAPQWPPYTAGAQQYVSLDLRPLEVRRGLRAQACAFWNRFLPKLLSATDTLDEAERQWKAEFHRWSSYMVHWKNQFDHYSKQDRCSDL
nAChR(a4/b2), sequence (P43681 29-627 limits assumed): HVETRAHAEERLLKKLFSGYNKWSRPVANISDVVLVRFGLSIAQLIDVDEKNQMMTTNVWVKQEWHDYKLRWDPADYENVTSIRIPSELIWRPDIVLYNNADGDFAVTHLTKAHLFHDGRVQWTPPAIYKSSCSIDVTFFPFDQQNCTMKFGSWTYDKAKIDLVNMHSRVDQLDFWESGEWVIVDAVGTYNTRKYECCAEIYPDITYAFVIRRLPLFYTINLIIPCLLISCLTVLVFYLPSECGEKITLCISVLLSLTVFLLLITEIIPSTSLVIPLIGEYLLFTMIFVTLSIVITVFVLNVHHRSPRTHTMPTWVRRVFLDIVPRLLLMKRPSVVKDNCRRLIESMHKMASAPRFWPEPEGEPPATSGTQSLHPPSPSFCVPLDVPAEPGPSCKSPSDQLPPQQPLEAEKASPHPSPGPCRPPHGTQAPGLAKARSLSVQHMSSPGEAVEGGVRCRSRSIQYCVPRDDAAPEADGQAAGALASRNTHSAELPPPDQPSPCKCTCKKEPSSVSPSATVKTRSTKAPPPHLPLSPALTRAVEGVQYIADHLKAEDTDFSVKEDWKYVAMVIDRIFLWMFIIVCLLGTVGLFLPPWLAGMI
nAChR(a4/b2), sequence (P17787 26-502): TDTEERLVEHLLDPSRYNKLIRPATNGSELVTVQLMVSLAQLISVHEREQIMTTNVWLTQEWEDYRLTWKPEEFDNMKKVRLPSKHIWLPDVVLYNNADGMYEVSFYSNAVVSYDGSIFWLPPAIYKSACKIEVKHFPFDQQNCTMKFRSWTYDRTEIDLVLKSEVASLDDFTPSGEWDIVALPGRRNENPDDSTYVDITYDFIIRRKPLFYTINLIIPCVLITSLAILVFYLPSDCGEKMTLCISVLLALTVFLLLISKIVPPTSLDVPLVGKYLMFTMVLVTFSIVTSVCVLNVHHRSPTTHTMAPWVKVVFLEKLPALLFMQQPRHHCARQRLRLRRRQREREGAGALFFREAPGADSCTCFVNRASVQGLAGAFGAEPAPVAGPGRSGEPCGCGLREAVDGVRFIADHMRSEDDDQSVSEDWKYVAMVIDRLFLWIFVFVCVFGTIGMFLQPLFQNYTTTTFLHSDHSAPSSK
COX2, sequence (P35354 18-604): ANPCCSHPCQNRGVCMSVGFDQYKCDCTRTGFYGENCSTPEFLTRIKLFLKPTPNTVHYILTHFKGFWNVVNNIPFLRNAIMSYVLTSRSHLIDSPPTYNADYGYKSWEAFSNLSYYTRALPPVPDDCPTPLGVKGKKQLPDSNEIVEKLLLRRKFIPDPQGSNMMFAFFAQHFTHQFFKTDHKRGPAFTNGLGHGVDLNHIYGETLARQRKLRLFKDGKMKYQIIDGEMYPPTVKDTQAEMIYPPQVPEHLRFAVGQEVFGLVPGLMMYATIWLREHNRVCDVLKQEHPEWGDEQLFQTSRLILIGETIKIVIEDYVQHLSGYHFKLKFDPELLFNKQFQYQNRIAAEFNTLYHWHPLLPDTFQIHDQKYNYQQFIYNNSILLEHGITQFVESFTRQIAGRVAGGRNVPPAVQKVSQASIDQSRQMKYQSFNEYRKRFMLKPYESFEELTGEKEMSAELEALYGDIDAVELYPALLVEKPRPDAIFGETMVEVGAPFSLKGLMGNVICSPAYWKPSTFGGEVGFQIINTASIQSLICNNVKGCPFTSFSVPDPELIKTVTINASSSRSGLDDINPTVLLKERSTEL
LCK, sequence (P06239 whole entry): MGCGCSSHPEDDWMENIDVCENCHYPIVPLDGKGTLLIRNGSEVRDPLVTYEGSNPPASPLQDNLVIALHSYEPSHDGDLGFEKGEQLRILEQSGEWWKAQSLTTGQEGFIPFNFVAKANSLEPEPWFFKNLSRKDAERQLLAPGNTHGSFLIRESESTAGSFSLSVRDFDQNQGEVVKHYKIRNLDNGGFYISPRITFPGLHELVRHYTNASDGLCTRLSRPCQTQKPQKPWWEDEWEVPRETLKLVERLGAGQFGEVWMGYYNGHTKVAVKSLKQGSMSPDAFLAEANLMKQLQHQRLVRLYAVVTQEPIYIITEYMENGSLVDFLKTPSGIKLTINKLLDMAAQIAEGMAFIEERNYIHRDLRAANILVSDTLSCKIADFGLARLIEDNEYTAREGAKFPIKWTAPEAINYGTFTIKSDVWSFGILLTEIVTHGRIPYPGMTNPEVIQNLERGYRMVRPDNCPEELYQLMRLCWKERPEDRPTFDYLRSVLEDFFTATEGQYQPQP

SMILES: Cn1c(=O)c2c(c3cc(Nc4ccnc(F)c4Cl)ccc31)N[C@@H](C1CC1)C(F)(F)CO2 [compound 17, (S)-10-((3-chloro-2-fluoropyridin-4-yl)amino)-2-cyclopropyl-3,3-difluoro-7-methyl-1,2,3,4-tetrahydro-[1,4]oxazepino[2,3-c]quinolin-6(7H)-one]
- Emax (ADORA2A [1]; read-out: Max Response): 0%
- EC50 (ADORA2A [1]; read-out: RC50 (EC50)): > 10 µM
- Emax (CCKAR; read-out: Max Response): 0.06%
- EC50 (CCKAR; read-out: RC50 (EC50)): > 10 µM
- EC50 (HTR2A): > 10 µM
- Emax (HTR2A; HTR2A, Calcium Flux, Agonist, read-out: Max Response): 2.33%
- Emax (ADORA2A [2]; read-out: Max Response): 10.4%
- IC50 (ADORA2A [2]; read-out: RC50 (IC50)): > 10 µM
- IC50 (ADRA1A): > 10 µM
- Emax (ADRA1A; ADRA1A, Calcium Flux, Antagonist, read-out: Max Response): 0%
- Emax (HRH1; read-out: Max Response): 14.2%
- IC50 (HRH1; read-out: RC50 (IC50)): > 10 µM
- EC50 (DRD2S [3]): 3.5 µM
- Hill (DRD2S [3]; DRD2S, cAMP, Agonist): 1.25
- Emax (DRD2S [3]; DRD2S, cAMP, Agonist, read-out: Max Response): 72.1%
- Emax (HRH2; read-out: Max Response): 0%
- EC50 (HRH2; read-out: RC50 (EC50)): > 10 µM
- EC50 (HTR1A): > 10 µM
- Emax (HTR1A; HTR1A, cAMP, Agonist, read-out: Max Response): 45.6%
- Hill (ADRB1): 1.19
- Emax (ADRB1; read-out: Max Response): 88.7%
- IC50 (ADRB1; read-out: RC50 (IC50)): 1.6 µM
- Hill (ADRB2): 1.29
- Emax (ADRB2; read-out: Max Response): 89%
- IC50 (ADRB2; read-out: RC50 (IC50)): 1.77 µM
- IC50 (DRD2S [4]): > 10 µM
- Emax (DRD2S [4]; DRD2S, cAMP, Antagonist, read-out: Max Response): 0%
- Emax (KvLQT1/minK; read-out: Max Response): 12.6%
- IC50 (KvLQT1/minK; read-out: RC50 (IC50)): > 10 µM
- EC50 (nAChR(a4/b2)): > 10 µM
- Emax (nAChR(a4/b2); nAChR(a4/b2), Ion Channel, Opener, read-out: Max Response): 3.37%
- EC50 (NMDAR (1A/2B)): > 10 µM
- Emax (NMDAR (1A/2B); NMDAR (1A/2B), Ion Channel, Opener, read-out: Max Response): 0.2%
- Emax (INSR; read-out: Max Response): 0%
- IC50 (INSR; read-out: RC50 (IC50)): > 10 µM
- Emax (LCK; read-out: Max Response): 0.08%
- IC50 (LCK; read-out: RC50 (IC50)): > 10 µM
- Emax (AChE; read-out: Max Response): 9.89%
- IC50 (AChE; read-out: RC50 (IC50)): > 10 µM
- Emax (COX2; read-out: Max Response): 0%
- IC50 (COX2; read-out: RC50 (IC50)): > 10 µM
- IC50 (SERT): > 10 µM
- Emax (SERT; SERT, Transporter, Blocker, read-out: Max Response): 0%

From publication PMC10150366, “Discovery of an In Vivo Chemical Probe for BCL6 Inhibition by Optimization of Tricyclic Quinolinones” (Journal of Medicinal Chemistry, 2023)
